Tested on: IKZF1, ASS1 and SALL4 recruitment to CRBN
Test: Recruitment assessment: recruitment of any tested substrate from among IKZF1, ASS1 and SALL4
Format: cell-based
Details: any tested substrate at any tested compound concentration
Procedure: In this experimental set-up, cells were transfected with a construct encoding a CRBN-fusion protein and another one encoding a substrate-fusion protein. Test compound activity was assessed with increasing concentrations of test compounds (dose-response studies) to monitor the ability to promote CRBN-ligand-induced protein interaction.
Full size proteins were fused for each of the target proteins tested, except in the case of IKZF1 where isoform 7 was used. For the study, the following were used: IKZF1 recruitment: pSEL-CRBN+pMG1-IKZF1(isoform 7); ASS1 recruitment: pSEL-CRBN+pMG1-ASS1. SALL4 recruitment: pSEL-SALL4+pMG1-CRBN. […] Luciferase activity was measured 24 hours after test compound treatment using the Luciferase Assay System kit (PROMEGA, Madison, Wis.) with an Ensight plate reader (PERKIN ELMER LIFE SCIENCES, Waltham, Mass.). Data points depicted fold induction of the average luciferase activity of triplicate samples from EPO+test compound treated cells versus EPO only treated cells. Error bars represent standard deviations. Curves were fit using 4-parameter nonlinear regression in […] PRISM software.

Row | Structure (SMILES) | Recruitment Assessment
1 | O=C1CCC(Nc2cnc3ccccc3n2)C(=O)N1 (stereo not shown) [C44292, 3-(quinoxalin-2-ylamino)piperidine-2,6-dione] | FALSE
2 | CC(=O)Nc1ccc2c(c1)C(=O)N(C1CCC(=O)NC1=O)C2 (stereo not shown) [C29408, N-[2-(2,6-dioxo-3-piperidyl)-3-oxo-isoindolin-5-yl]acetamide] | FALSE
3 | NC(=O)c1ccc2c(c1)C(=O)N(C1CCC(=O)NC1=O)C2 (stereo not shown) [C39772, 2-(2,6-dioxo-3-piperidyl)-3-oxo-isoindoline-5-carboxamide] | FALSE
4 | O=C1CCC(N2Cc3cccc([N+](=O)[O-])c3C2=O)C(=O)N1 (stereo not shown) [C99884, 3-(7-nitro-1-oxo-isoindolin-2-yl)piperidine-2,6-dione] | FALSE
5 | O=C1CCC(N2C(=O)c3ccccc3C2NC(=O)c2ccccc2)C(=O)N1 (stereo not shown) [C46003, N-[2-(2,6-dioxo-3-piperidyl)-3-oxo-isoindolin-1-yl]benzamide] | FALSE
6 | O=C1CCC(N2Cc3ccc(NCC(=O)N4CC5CC4CO5)cc3C2=O)C(=O)N1 (stereo not shown) [C12589, 3-[6-[[2-(2-oxa-5-azabicyclo[2.1.1]heptan-5-yl)-2-oxo-ethyl]amino]-1-oxo-isoindolin-2-yl]piperidine] | FALSE
7 | Nc1cccc2c1CCN(C1CCC(=O)NC1=O)C2=O (stereo not shown) [C47933, 3-(5-amino-1-oxo-3,4-dihydroisoquinolin-2-yl)piperidine-2,6-dione] | TRUE
8 | CC(=O)Nc1cccc2c1CN(C1CCC(=O)NC1=O)C2=O (stereo not shown) [C29330, N-[2-(2,6-dioxo-3-piperidyl)-1-oxo-isoindolin-4-yl]acetamide] | TRUE
9 | O=C1CC[C@H](N2Cc3c(OCc4ccc(CN5CCOCC5)cc4)cccc3C2=O)C(=O)N1 [CC-220, (3S)-3-[4-[[4-(morpholinomethyl)phenyl]methoxy]-1-oxo-isoindolin-2-yl]piperidine-2,6-dione, reference compound] | TRUE
10 | CC(=O)Nc1cccc2c1C(=O)N(C1CCC(=O)NC1=O)C2 (stereo not shown) [C29457, N-[2-(2,6-dioxo-3-piperidyl)-3-oxo-isoindolin-4-yl]acetamide] | TRUE
11 | CN(CC1CC1)C(=O)CNc1ccc2c(c1)C(=O)N(C1CCC(=O)NC1=O)C2 (stereo not shown) [C95338, N-(cyclopropylmethyl)-2-[[2-(2,6-dioxo-3-piperidyl)-3-oxo-isoindolin-5-yl]amino]-N-methyl-acetamide] | FALSE
12 | O=C1CCC(N2Cc3ccc(Nc4[nH]cnc5nccc4-5)cc3C2=O)C(=O)N1 (stereo not shown) [C80385, 3-[1-oxo-6-(3H-pyrrolo[2,3-d]pyrimidin-4-ylamino)isoindolin-2-yl] piperidine-2,6-dione] | FALSE
13 | CC1CCCN(C(=O)CNc2ccc3c(c2)C(=O)N(C2CCC(=O)NC2=O)C3)CC1 (stereo not shown) [C12697, 3-[6-[[2-(4-methylazepan-1-yl)-2-oxo-ethyl]amino]-1-oxo-isoindolin-2-yl]piperidine-2,6-dione] | FALSE
14 | O=C1CCC(N2Cc3ccccc3C2=O)C(=O)N1 (stereo not shown) [3-(1-oxoisoindolin-2-yl)piperidine-2,6-dione] | TRUE
15 | Cc1cc2[nH]cnc(Nc3ccc4c(c3)C(=O)N(C3CCC(=O)NC3=O)C4)c-2n1 (stereo not shown) [C80390, 3-[6-[(6-methylpyrrolo[3,2-d]pyrimidin-4-yl)ammo]-1-oxo-isoindolin-2-yl]piperidine-2,6-dione] | TRUE
16 | Cc1nc2cccc(N)c2c(=O)n1C1CCC(=O)NC1=O (stereo not shown) [CC-122, 3-(5-amino-2-methyl-4-oxo-quinazolin-3-yl)piperidine-2,6-dione, reference compound] | TRUE
17 | O=C1CCC(N2Cc3cccc(O)c3C2=O)C(=O)N1 (stereo not shown) [C28973, 3-(7-hydroxy-1-oxo-isoindolin-2-yl)piperidine-2,6-dione] | TRUE
18 | N#Cc1ccc(Nc2ccc3c(c2)C(=O)N(C2CCC(=O)NC2=O)C3)nn1 (stereo not shown) [C80389, 6-[[2-(2,6-dioxo-3-piperidyl)-3-oxo-isoindolin-5-yl]amino]pyridazine-3-carbonitrile] | FALSE
19 | O=C1c2ccccc2CC1n1ccc(=O)[nH]c1=O (stereo not shown) [C16899, 1-(1-oxoindan-2-yl)pyrimidine-2,4-dione] | FALSE
20 | COC1c2ccccc2C(=O)N1C1CCC(=O)NC1=O (stereo not shown) [C56572, 3-(1-methoxy-3-oxo-isoindolin-2-yl)piperidine-2,6-dione] | FALSE

Row | Structure (SMILES) | Recruitment Assessment
21 | CC1CN(C(=O)CNc2ccc3c(c2)C(=O)N(C2CCC(=O)NC2=O)C3)CCO1 (stereo not shown) [C12586, 3-[6-[[2-(2-methylmorpholin-4-yl)-2-oxo-ethyl]amino]-1-oxo-isoindolin-2-yl]piperidine-2,6-dione] | FALSE
22 | Cc1cccc2c1C(=O)N(C1CCC(=O)NC1=O)C2 (stereo not shown) [C28661, 3-(7-methyl-1-oxo-isoindolin-2-yl)piperidine-2,6-dione] | FALSE
23 | O=C(CNc1ccc2c(c1)C(=O)N(C1CCC(=O)NC1=O)C2)NCc1ccccc1 (stereo not shown) [C84966, N-benzyl-2-[[2-(2,6-dioxo-3-piperidyl)-3-oxo-isoindolin-5-yl]amino]acetaimde] | FALSE
24 | O=C1CCC(N2Cc3ccc(NCC(=O)NC4CC4)cc3C2=O)C(=O)N1 (stereo not shown) [C84963, N-cyclopropyl-2-[[2-(2,6-dioxo-3-piperidyl)-3-oxo-isoindolin-5-yl]amino]acetamide] | FALSE
25 | Cl.NC1Cc2ccccc2C1=O (stereo not shown) [C75987, 2-aminoindan-1-one; hydrochloride] | FALSE
26 | O=C1CCC(N2Cc3cc(Nc4ncnc5ccccc45)ccc3C2=O)C(=O)N1 (stereo not shown) [C80373, 3-[-oxo-5-(quinazolin-4-ylamino)isoindolin-2-yl]piperidine-2,6-dione] | TRUE
27 | NCc1ccc2c(c1)C(=O)N(C1CCC(=O)NC1=O)C2 (stereo not shown) [C66979, 3-[6-(aminomethyl)-1-oxo-isoindolin-2-yl]piperidine-2,6-dione] | FALSE
28 | O=C1CCC(CN2C(=O)c3ccccc3C2=O)C(=O)N1 (stereo not shown) [C23258, 2-[(2,6-dioxo-3-piperidyl)methyl]isoindoline-1,3-dione] | FALSE
29 | CN(C)C(=O)CNc1ccc2c(c1)C(=O)N(C1CCC(=O)NC1=O)C2 (stereo not shown) [C84964, 2-[[2-(2,6-dioxo-3-piperidyl)-3-oxo-isoindolin-5-yl]amino]-N,N-dimethyl-acetamide] | FALSE
30 | O=C1N=CC(N2C(=O)c3ccccc3C2=O)C(=O)N1 (stereo not shown) [C49278, 2-(2,6-dioxo-5H-pyrimidin-5-yl)isoindoline-1,3-dione] | FALSE
31 | NC(=O)CNc1ccc2c(c1)C(=O)N(C1CCC(=O)NC1=O)C2 (stereo not shown) [C84961, 2-[[2-(2,6-dioxo-3-piperidyl)-3-oxo-isoindolin-5-yl]amino]acetamide] | FALSE
32 | O=C1CCC(N2Cc3ccc(O)cc3C2=O)C(=O)N1 (stereo not shown) [C28928, 3-(6-hydroxy-1-oxo-isoindolin-2-yl)piperidine-2,6-dione] | TRUE
33 | Nc1cccc2c1CN(C1CNC(=O)NC1=O)C2=O (stereo not shown) [C47928, 5-(4-amino-1-oxo-isoindolin-2-yl)hexahydropyrimidine-2,4-dione] | FALSE
34 | Cn1ncc2c(Nc3ccc4c(c3)C(=O)N(C3CCC(=O)NC3=O)C4)ncnc21 (stereo not shown) [C80383, 3-[6-[(1-methylpyrazolo[3,4-d]pyrimidin-4-yl)amino]-1-oxo-isoindolin-2-yl]piperidine-2,6-dione] | FALSE
35 | CN1CCC2(CC1)CC(=O)N(C1CCC(=O)NC1=O)C2=O (stereo not shown) [C64372, 2-(2,6-dioxo-3-piperidyl)-8-methyl-2,8-diazaspiro[4.5]decane-1,3-dione] | FALSE
36 | CC1Cc2ccccc2N1C(=O)CNc1ccc2c(c1)C(=O)N(C1CCC(=O)NC1=O)C2 (stereo not shown) [C95336, 3-[6-[[2-(2-methylindolin-1-yl)-2-oxo-ethyl]amino]-1-oxo-isoindolin-2-yl]piperidine-2,6-dione] | FALSE
37 | Cc1cccc2c1C(=O)N(C1CCC(=O)NC1=O)S2(=O)=O (stereo not shown) [C73349, 3-(4-methyl-1,1,3-trioxo-1,2-benzothiazol-2-yl)piperidine-2,6-dione] | FALSE
38 | CC1CN(C)CCN1C(=O)CNc1ccc2c(c1)C(=O)N(C1CCC(=O)NC1=O)C2 (stereo not shown) [C12595, 3-[6-[[2-(2,4-dimethylpiperazin-1-yl)-2-oxo-ethyl]amino]-1-oxo-isoindolin-2-yl]piperidine-2,6-dione] | FALSE
39 | Cc1ccc(NC(=O)NCc2cc(C)c3c(c2)CN(C2CCC(=O)NC2=O)C3=O)cc1Cl (stereo not shown) [C58181, 1-(3-chloro-4-methyl-phenyl)-3-[[2-(2,6-dioxo-3-piperidyl)-7-methyl-1-oxo-isoindolin-5-yl]methyl]urea] | TRUE
40 | CC1CCN(C(=O)CNc2ccc3c(c2)C(=O)N(C2CCC(=O)NC2=O)C3)CC1 (stereo not shown) [C12582, 3-[6-[[2-(4-methyl-1-piperidyl)-2-oxo-ethyl]amino]-1-oxo-isoindolin-2-yl]piperidine-2,6-dione] | FALSE

Source: patent publication US20230111853A1, “COMPOUNDS MODULATING PROTEIN RECRUITMENT AND/OR DEGRADATION” (Orionis Biosciences, Inc., priority 2019, published 2023)
